Test: Study HDP-CDV-201: safety and tolerability (adverse events, laboratory abnormalities, discontinuations)
Type: in vivo, human (adult allogeneic HSCT recipients)
Procedure: Clinical Studies of HDP-CDV were performed and described in detail in the following Examples. For example, HDP-CDV-201 is a placebo-controlled, dose-escalating trial in HSCT CMV (R+) recipients, evaluating the ability of HDP-CDV to prevent or control CMV infection was carried out. Five cohorts were established in which participants or subjects received either placebo or the HDP-CDV orally, in doses ranging from 40 mg weekly (QW) to 200 mg twice weekly (BIW). Subjects who were post-HSCT were enrolled at the time of engraftment and randomized to HDP-CDV or placebo (3 to 1 ratio) and received blinded therapy until approximately 100 day post-transplantation. HDP-CDV doses were 40 mg QW, 100 mg QW, 200 mg QW, 200 mg BIW and 100 mg BIW. Escalation to the next dose was decided by the data monitoring committee after review of the safety data from the previous Cohort. Subjects who developed CMV disease or CMV infection requiring pre-emptive therapy with local standard of care were discontinued from blinded therapy and followed for 4 weeks. Subjects who completed treatment with blinded therapy were followed for 8 weeks post-therapy.
Data from Study HDP-CDV-201 also provided characterization of the safety and tolerability profile of HDP-CDV when administered for the prevention or control of CMV infection in high risk (R^+) post-HSCT adult subjects.
The Safety population (SAFETY) included all randomized subjects who took at least one dose of study treatment. This population was used to summarize safety outcomes based on the treatment actually received, in cases where a subject was treated contrary to the randomization schedule.
The safety and tolerability profile of HDP-CDV, including subject demographics and Baseline characteristics; the AE profile; and laboratory abnormalities of interest were analyzed in the cohorts followed in this investigation.
Subjects completing the treatment period received a full course of study medication; those completing the entire study attended visits through 8 weeks of follow up. Subjects who discontinued treatment may have done so for protocol specified reasons (e.g. development of clinically significant CMV infection requiring preemptive treatment with excluded anti-CMV medications) or for other reasons (e.g., withdrawal, adverse events, loss to follow-up). The disposition of subjects in Study HDP-CDV-201 during the double-blind, placebo-controlled treatment period (through Week 11) is listed by dosing Cohort in TABLE 23.
Adverse events were examined by severity to ensure that all safety signals were identified in this study population. Because of the frequency of events in HSCT recipients, particular attention was given to evaluation of Grade 3 […], 4 (severe), and 5 (fatal) adverse events.
Only those preferred terms for which at least one Grade 3 or higher event was experienced in any treatment group are listed. Cytomegalovirus-related AEs are excluded from this analysis.
HDP-CDV is a lipid conjugate of CDV. Because CDV is known to have adverse effects on renal function and bone marrow, decreased GFR and persistent neutropenia were identified as AEs of special interest. Key renal and hematological (TABLE 30) laboratory parameters were measured and listed below by Study HDP-CDV-201 treatment groups. TABLE 30 includes abnormal levels of serum creatinine, neutrophils, platelets, WBCs, and hemoglobin and includes data at Screening and during the treatment period.
A common metric for unit based dosing of medications is by weight (mg/kg). When the distribution of weights was examined for all subjects participating in the study, the median was 78 kg and the lower 25th percentile weight was approximately 65 kg, which translates to a cut-off of ˜3 mg/kg for a 200 mg total weekly dose. Based upon this approach, a cut-off of 3 mg/kg was used to assess the frequency of diarrhea and associated GI AEs reported for the subjects in Cohorts 3 or 4a (TABLE 40).

[1] = Cohort 1, 40 mg QW, through Week 11

## CCCCCCCCCCCCCCCCOCCCOP(=O)(O)COC(CO)Cn1ccc(N)nc1=O (stereo not drawn) [HDP-CDV]
Cohort 1, 40 mg QW
  Gastrointestinal AE Abdominal discomfort, subjects: 0
  Gastrointestinal AE Abdominal distention, subjects: 2 (8.0%)
  Gastrointestinal AE Abdominal pain upper, subjects: 1 (4.0%)
  Gastrointestinal AE Abdominal pain, subjects: 4 (16.0%)
  Gastrointestinal AE Constipation, subjects: 1 (4.0%)
  Gastrointestinal AE Diarrhoea, subjects: 3 (12.0%)
  Gastrointestinal AE Diverticulum intestinal haemorragic, subjects: 0
  Gastrointestinal AE Dyspepsia, subjects: 3 (12.0%)
  Gastrointestinal AE Dysphagia, subjects: 0
  Gastrointestinal AE Epigastric discomfort, subjects: 1 (4.0%)
  Gastrointestinal AE Flatulence, subjects: 0
  Gastrointestinal AE GERD, subjects: 2 (8.0%)
  Gastrointestinal AE Gastritis, subjects: 0
  Gastrointestinal AE Haematochezia, subjects: 1 (4.0%)
  Gastrointestinal AE Haemorroids, subjects: 1 (4.0%)
  Gastrointestinal AE Large intestinal ulcer, subjects: 1 (4.0%)
  Gastrointestinal AE Nausea, subjects: 6 (24.0%)
  Gastrointestinal AE Odynophagia, subjects: 0
  Gastrointestinal AE Oesophagitis, subjects: 1 (4.0%)
  Gastrointestinal AE Retching, subjects: 0
  Gastrointestinal AE Vomiting, subjects: 2 (8.0%)
  Hepatobiliary clinical AE Cholelithiasis, subjects: 1 (4.0%)
  Hepatobiliary clinical AE Hepatomegaly, subjects: 0
  Hepatobiliary clinical AE Hyperbilirubinaemia, subjects: 1 (4.0%)
  Hepatobiliary clinical AE Jaundice, subjects: 0
  Hepatobiliary clinical AE Liver injury, subjects: 0
  Intensity of Gastrointestinal AEs, Grade 1, subjects: 9 (36.0%)
  Intensity of Gastrointestinal AEs, Grade 2, subjects: 6 (24.0%)
  Intensity of Gastrointestinal AEs, Grade 3, subjects: 2 (8.0%)
  Intensity of Gastrointestinal AEs, Grade 4, subjects: 0
  Intensity of Gastrointestinal AEs, Grade 5, subjects: 0
  Serum ALT level, Median fold increase from Baseline at Follow-up Week 1: 1.50 fold
  Serum ALT level, Median fold increase from Baseline at Follow-up Week 4: 1.00 fold
  Serum ALT level, Peak Median fold increase from Baseline: 1.80 fold
  Subjects completed study: 7 (28.0%) n (%)
  Total Bilirubin (Screening) >1-[…] ULN, subjects: 1 (4.0%)
  Total Bilirubin (Screening) >1.5-3 × ULN, subjects: 3 (12.0%)
  Total Bilirubin (Screening) >3-10 × ULN, subjects: 0
  Total Bilirubin (Screening) >10 × ULN, subjects: 0
  Total Bilirubin (any time during therapy) >1-[…] ULN, subjects: 3 (13.0%)
  Total Bilirubin (any time during therapy) >1.5-3 × ULN, subjects: 1 (4.3%)
  Total Bilirubin (any time during therapy) >3-10 × ULN, subjects: 0
  Total Bilirubin (any time during therapy) >10 × ULN, subjects: 0
Cohort 1, 40 mg QW, N = 25
  Abdominal pain leading to study drug withdrawal: 0%
  All AEs leading to withdrawal: 15 (60.0%)
  Diarrhoea leading to study drug withdrawal: 0%
  Dyspepsia leading to study drug withdrawal: 0%
  Nausea leading to study drug withdrawal: 0%
  TEAE ALT increased: 2 (8.0%) n (%)
  TEAE AST increased: 1 (4.0%) n (%)
  TEAE Abdominal pain: 4 (16.0%) n (%)
  TEAE Abdominal pain, Upper: 1 (4.0%) n (%)
  TEAE Acute GVHD: 6 (24.0%) n (%)
  TEAE Acute Myeloid Leukemia recurrent: 3 (12.0%) n (%)
  TEAE Acute Renal Failure: 2 (8.0%) n (%)
  TEAE Anxiety: 0 n (%)
  TEAE Arthralgias: 0 n (%)
  TEAE Back Pain: 0 n (%)
  TEAE Blood lactate dehydrogenase increased: 0 n (%)
  TEAE Creatinine increased: 0 n (%)
  TEAE Cytomegalovirus viremia: 10 (40.0%) n (%)
  TEAE Decreased appetite: 4 (16.0%) n (%)
  TEAE Diarrhoea: 3 (12.0%) n (%)
  TEAE Dysgeusia: 1 (4.0%) n (%)
  TEAE Fatigue: 1 (4.0%) n (%)
  TEAE GI Reflux Disease: 2 (8.0%) n (%)
  TEAE Gamma-glutamyltransferase increased: 0 n (%)
  TEAE Generalized oedema: 1 (4.0%) n (%)
  TEAE Hyperbilirubinaemia: 1 (4.0%) n (%)
  TEAE Hyperglycaemia: 1 (4.0%) n (%)
  TEAE Hyperkalemia: 1 (4.0%) n (%)
  TEAE Hypocalcaemia: 1 (4.0%) n (%)
  TEAE Hypokalaemia: 4 (16.0%) n (%)
  TEAE Hyponatraemia: 3 (12.0%) n (%)
  TEAE Increased leukocytosis: 1 (4.0%) n (%)
  TEAE Insomnia: 2 (8.0%) n (%)
  TEAE Liver function test abnormal: 0 n (%)
  TEAE Malnutrition: 0 n (%)
  TEAE Nausea: 6 (24.0%) n (%)
  TEAE Neutropenia: 2 (8.0%) n (%)
  TEAE Oedema peripheral: 3 (12.0%) n (%)
  TEAE Oral Candidiasis: 0 n (%)
  TEAE Pneumonia: 1 (4.0%) n (%)
  TEAE Pyrexia: 1 (4.0%) n (%)
  TEAE Recurrent flatulence: 0 n (%)
  TEAE Renal Failure: 1 (4.0%) n (%)
  TEAE Staphylococcal Bacteremia: 0 n (%)
  TEAE Thrombocytopenia: 3 (12.0%) n (%)
  TEAE Tremor: 3 (12.0%) n (%)
  TEAE Vomiting: 2 (8.0%) n (%)
  Vomiting leading to study drug withdrawal: 0%
Cohort 1, 40 mg QW, N = 25, entire study duration
  All AEs, Grade 5 (deaths): 2 (8.0%)
[1]
  Subjects completed treatment: 9 (36.0%) n (%)
  Subjects who permanently discontinued treatment: 16 (64.0%) n (%)
Cohort 2
  subjects discontinued due to neutropenia: 1 subject(s)
Cohort 2, 100 mg QW
  ALT (Screening) >3 × ULN-5 × ULN, subjects: 0
  ALT (Screening) >5 × ULN-10 × ULN, subjects: 0
  ALT (Screening) >10 × ULN-20 × ULN, subjects: 0
  ALT (Screening) >20 × ULN, subjects: 0
  ALT (any time during therapy) >3 × ULN-5 × ULN, subjects: 1 (3.7%)
  ALT (any time during therapy) >5 × ULN-10 × ULN, subjects: 0
  ALT (any time during therapy) >10 × ULN-20 × ULN, subjects: 1 (3.7%)
  ALT (any time during therapy) >20 × ULN, subjects: 0
  AST (Screening) >3 × ULN-5 × ULN, subjects: 0
  AST (Screening) >5 × ULN-10 × ULN, subjects: 0
  AST (Screening) >10 × ULN-20 × ULN, subjects: 0
  AST (Screening) >20 × ULN, subjects: 0
  AST (any time during therapy) >3 × ULN-5 × ULN, subjects: 1 (3.7%)
  AST (any time during therapy) >5 × ULN-10 × ULN, subjects: 0
  AST (any time during therapy) >10 × ULN-20 × ULN, subjects: 0
  AST (any time during therapy) >20 × ULN, subjects: 0

Source: patent US20140303092A1 (CHIMERIX, INC., priority 2011, published 2014)
